Experimental data as given in patent US9200171B2, “AZO compound and ink containing the compound” (MITSUBISHI CHEMICAL CORPORATION, priority 2011, dated 2015).
≈ marks a conversion by molar mass, not a printed value.

Key:
Format in all cases: physicochemical
[1] = Solubility C (saturated concentration at 5° C.) of compound in low-polarity solvent and product εC; conditions: for ε · C: C at 5° C.; for solubility at 24 h: organic solvent or mixture, thermodynamic from solid; for solubility at 24 h / Solubility: at 5° C.
Description: The solubility C of each compound in each solvent was measured as follows.
Each compound was added to each solvent until a dissolution residue came to remain, and the mixture was subjected to an ultrasonic treatment for 30 minutes at 30° C. After the mixture was allowed to stand at 5° C. for 24 hours, centrifugal filtration was performed through a filter of 0.1 μm using a microcentrifuge (centrifugal force 5200×g). The resulting saturated solution was diluted to an appropriate concentration, and measurement of absorption spectra was performed on Hitachi spectrophotometer U-4100 using a quartz cell having an optical path length for measurement of 10 mm. The concentration of each compound was determined from a relationship between the absorbance at the absorption-maximum wavelength λmax (nm) and the molar extinction coefficient ε (L·mol^−1·cm^−1) previously measured, and the solubility C (mol·L^−1) was calculated. Moreover, the value of the product of the molar extinction coefficient ε (L·mol^−1·cm^−1) and the solubility C (mol·L^−1), εC, was determined.
Sudan Black B (manufactured by Tokyo Chemical Industry Co., Ltd.) that is a commercially available oil-soluble black dye was added to n-decane (relative permittivity 2.0, solubility in water 1 mg/L or less) until a dissolution residue came to remain, and the mixture was subjected to an ultrasonic treatment for 30 minutes at 30° C. After the mixture was allowed to stand at 5° C. for 24 hours, centrifugal filtration was performed through a filter of 0.1 μm using a microcentrifuge (centrifugal force 5200×g). The resulting saturated n-decane solution was diluted to an appropriate concentration.

[2] = Absorption-maximum wavelength λmax, molar extinction coefficient ε and solution colour in each solvent; conditions: for ε: at absorption-maximum wavelength
Description: Each of the compounds 1 to 15 and the comparative example compounds 1 and 2 (1 mg each) was dissolved in each solvent (100 ml) and measurement of absorption spectra was performed on Hitachi spectrophotometer U-4100 using a quartz cell having an optical path length for measurement of 10 mm. From the resulting spectra, absorption-maximum wavelength λmax (nm) and molar extinction coefficient ε ([…]) were determined.

[3] = Relative permittivity of solvent (impedance meter method, 1 kHz, 22° C.); conditions: frequency 1 kHz
Source text: In the case where the solvent is used as a mixture, when the interaction between the solvents is small as in the invention, the relative permittivity of the mixed solvent can be approximated by multiplying relative permittivity of each solvent constituting the mixed solvent by each volume fraction and summing respective products. Moreover, when the interaction between the solvents is similarly small, solubility of the mixed solvent in water can be approximated by a value obtained by multiplying solubility of each solvent constituting the mixed solvent in water by each molar fraction and summing respective products.
Thereafter, the equivalent parallel capacity was measured while applying a test signal voltage of 0.1 V at a frequency of 1 kHz at 22° C. The relative permittivity was determined through the calculation according to the following equation to evaluate the solvent or ink. Relative permittivity=(equivalent parallel capacity)×(electrode spacing)/(electrode area)/(permittivity in vacuum (ε0)) <Method for Measuring Solubility of Solvent in Water>

[4] = Solubility of solvent in water at 25° C.; conditions: pure water, thermodynamic from solid, single solvent
Description: Pure water (30 g) and a solvent (8 g) were introduced into 110 ml of a vial, which was shaken 200 times/minute for 4 hours in a constant-temperature tank at 25° C. The mixture after shaking was centrifuged (6000×g, for 5 minutes), the aqueous layer was sampled, and the concentration of the solvent dissolved was quantitatively determined by gas chromatography. Since Isopar was not a single compound but a mixture, the quantitative determination was performed as TOC (total organic carbon), which was converted into solubility according to the following equation, the average molecular weight being shown as Mw. Solubility [mg/L]=TOC [mg/L]×(14Mw/{12(Mw−2)}
In the case of a mixed solvent in which two or more kinds of solvents were mixed, the solubility in water was determined by multiplying the solubility of each solvent in water by each molar fraction and summing up the resulting products.
In the case where the solvent species used is unclear, the solubility in water can be measured by the above method through identification of the solvent species by mass spectroscopy or the like.

Row | Molecule | ε · C ([1]; n-decane) | solubility at 24 h ([1]; in n-decane) | Absorption-maximum wavelength ([2]; n-decane) | Color tone ([2]; n-decane solution) | ε ([2]; n-decane) | ε · C ([1]; Isopar M) | Solubility ([1]; in Isopar M) | Solubility ([1]; in n-decane) | Solubility ([1]; in tetradecane) | ε · C ([1]; tetradecane) | Absorption-maximum wavelength ([2]; Isopar M) | Color tone ([2]; Isopar M solution) | ε ([2]; Isopar M) | Absorption-maximum wavelength ([2]; tetradecane) | Color tone ([2]; tetradecane solution) | ε ([2]; tetradecane) | solubility at 24 h ([1]; in Isopar M) | solubility at 24 h ([1]; in tetradecane) | relative permittivity [3] | solubility at 4 h [4]
1 | CCCCCc1ccc(N=Nc2cc(C#N)c(/N=N/c3cc(OC)c(N(CC(CC)CCCC)CC(CC)CCCC)cc3NC(C)=O)s2)cc1 (centres unmarked) [Compound 5] | 16000 cm⁻¹ | 220 mM (≈ 157 mg/mL) | 667 nm | blue | 75000 L/mol/cm |  |  |  |  |  |  |  |  |  |  |  |  |  |  | 
2 | CCCCC(CC)COC(=O)c1ccc(N=Nc2cc(C#N)c(N=Nc3ccc(N(CC(CC)CCCC)CC(CC)CCCC)cc3C)s2)cc1 (centres unmarked) [Compound 6] | 7000 cm⁻¹ |  | 633 nm | blue | 66000 L/mol/cm | 10400 cm⁻¹ | 160 mM (≈ 116 mg/mL) | 110 mM (≈ 80 mg/mL) | 140 mM (≈ 102 mg/mL) | 9300 cm⁻¹ | 634 nm | blue | 65000 L/mol/cm | 635 nm | blue | 65000 L/mol/cm |  |  |  | 
3 | CCCCc1ccc(N=Nc2cc(C#N)c(N=Nc3cc(OC)c(N(CC(CC)CCCC)CC(CC)CCCC)cc3C)s2)cc1 (centres unmarked) [Compound 7] | 6900 cm⁻¹ |  | 640 nm | blue | 50000 L/mol/cm |  |  | 140 mM (≈ 92 mg/mL) |  |  |  |  |  |  |  |  |  |  |  | 
4 | CCCCC(CC)COC(=O)c1ccc(N=Nc2cc(C#N)c(N=Nc3ccc(N(CC(CC)CCCC)CC(CC)CCCC)cc3NC(C)=O)s2)cc1 (centres unmarked) [Compound 8] | 4700 cm⁻¹ |  | 637 nm | blue | 79000 L/mol/cm | 3400 cm⁻¹ | 44 mM (≈ 33.9 mg/mL) | 59 mM (≈ 45.4 mg/mL) | 44 mM (≈ 33.9 mg/mL) | 3500 cm⁻¹ | 638 nm | blue | 78000 L/mol/cm | 639 nm | blue | 79000 L/mol/cm |  |  |  | 
5 | CCCCC(CC)CN(CC(CC)CCCC)c1cc(NC(C)=O)c(/N=N/c2nc(Cl)c(C=O)s2)cc1OC (centres unmarked) [Compound 9] | 3300 cm⁻¹ | 58 mM (≈ 33.5 mg/mL) | 617 nm | blue | 57000 L/mol/cm | 2000 cm⁻¹ |  |  |  | 3300 cm⁻¹ | 618 nm | blue | 59000 L/mol/cm | 618 nm | blue | 59000 L/mol/cm | 34 mM (≈ 19.7 mg/mL) | 34 mM (≈ 19.7 mg/mL) |  | 
6 | CCCCC(CC)COC(=O)C(C#N)=Cc1sc(N=Nc2cc(OC)c(N(CC(CC)CCCC)CC(CC)CCCC)cc2NC(C)=O)nc1Cl (centres unmarked) [Compound 10] | 5700 cm⁻¹ |  | 656 nm | blue | 61000 L/mol/cm | 5500 cm⁻¹ | 64 mM (≈ 48.5 mg/mL) | 93 mM (≈ 70.4 mg/mL) | 36 mM (≈ 27.3 mg/mL) | 2000 cm⁻¹ | 657 nm | blue | 54000 L/mol/cm | 658 nm | blue | 55000 L/mol/cm |  |  |  | 
7 | CCCCC(CC)CN(CC(CC)CCCC)c1ccc(N=Nc2sc(C=C(C#N)C#N)c(Cl)c2C#N)c(NC(=O)C(CC)CCCC)c1 (centres unmarked) [Compound 11] | 5300 cm⁻¹ |  | 642 nm | blue | 60000 L/mol/cm |  |  | 89 mM (≈ 62.7 mg/mL) |  |  |  |  |  |  |  |  |  |  |  | 
8 | CCCCC(CC)CN(CC(CC)CCCC)c1cc(NC(C)=O)c(N=Nc2sc(C(=O)OCC)c(C)c2C(=O)OCC)cc1OC (centres unmarked) [Compound 12] | 12000 cm⁻¹ |  | 582 nm | blue | 46000 L/mol/cm |  |  | 250 mM (≈ 168 mg/mL) |  |  |  |  |  |  |  |  |  |  |  | 
9 | CCCCc1ccc(N=Nc2cc(C#N)c(N=Nc3cc(OC)c(N(CC(CC)CCCC)CC(CC)CCCC)cc3NC(=O)CC)s2)cc1 (centres unmarked) [Compound 13] | 4400 cm⁻¹ |  | 667 nm | blue | 76000 L/mol/cm |  |  | 59 mM (≈ 42.1 mg/mL) |  |  |  |  |  |  |  |  |  |  |  | 
10 | CCCCOc1ccc(N=Nc2sc(N=Nc3ccc(N(CC(CC)CCCC)CC(CC)CCCC)cc3Cl)nc2C)cc1 (centres unmarked) [Compound 14] | 7100 cm⁻¹ |  | 546 nm | red | 47000 L/mol/cm |  |  | 150 mM (≈ 98 mg/mL) |  |  |  |  |  |  |  |  |  |  |  | 
11 | CCCCc1ccc(N=Nc2cc(C#N)c(/N=N/c3ccc(N(CC(CC)CCCC)CC(CC)CCCC)cc3C)s2)cc1 (centres unmarked) [Compound 15] | 1700 cm⁻¹ | 27 mM (≈ 16.9 mg/mL) | 613 nm | blue | 64000 L/mol/cm |  |  |  |  |  |  |  |  |  |  |  |  |  |  | 
12 | CCCCCCCCCC [n-decane] |  |  |  |  |  |  |  |  |  |  |  |  |  |  |  |  |  |  | 2.0 | ≤ 1 µg/mL
13 | n-decaline |  |  |  |  |  |  |  |  |  |  |  |  |  |  |  |  |  |  | 2.0 | 
